Literature values as cited in US20050182030A1, “Liquid injectable formulation of disodium pamidronate” (American Pharmaceutical Partners, Inc., priority 2001, published 2005).

How the values were obtained:
[1] = liquid formulation
[2] = in vivo
[3] = approximately normal ambient conditions

In the case of NCCC(O)(P(=O)([O-])O)P(=O)([O-])O.[Na+].[Na+] [pamidronate, 3-amino-1-hydroxypropane-1,1-diphosphonate disodium], the “Stability during long-term storage” value [1] is given as “unstable/reactive” and the “Absorption from the gastrointestinal system” value [2] is given as “poor absorption”.
For NCCC(O)(P(=O)(O)O)P(=O)(O)O [pamidronic acid], the Solubility in water is given as “not soluble in water”.
For NCCC(O)(P(=O)([O-])O)P(=O)([O-])O.O.O.O.O.O.[Na+].[Na+] [pentahydrate, pamidronate disodium pentahydrate], the Stability to storage [3] is given as “stable to storage”.
